Measured values as given in patent US10221163B2 (priority 2015, dated 2019).
Where two headings read alike, the source gives them in different places.

Key:
[1] = test system: Klebsiella pneumoniae expressing VIM-1 (IHMA599644); format: cell-based; conditions: with imipenem 1 μg/ml; 95% inhibition of bacterial growth
Summary of the method: (§1)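 Colonies grown overnight on blood agar at 35° C were suspended in saline, diluted 1:100 into 1.1×CAMHB and dispensed. Imipenem was added to 1 μg/ml, then test compound. After 22 hours to 24 hours at 35° C, absorbance was recorded.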

[2] = test system: Escherichia coli expressing NDM-1 (CLB30005, CLB30016); format: cell-based; conditions: with imipenem 1 μg/ml; 95% inhibition of bacterial growth
Summary of the method: as §1

[3] = test system: Serratia marcescens expressing IMP-1 (CL5741); format: cell-based; conditions: with imipenem 1 μg/ml; 95% inhibition of bacterial growth
Summary of the method: as §1

[4] = test system: Pseudomonas aeruginosa MB9798 vs MB9799; conditions: ratio MITC95 PA_9798/MITC95 PA_9799
Excerpt: The strain background was Pseudomonas aeruginosa PAO1.
The strain set was then used as a pair to determine the effect of metallo-β-lactamase inhibitors of Formula I on the MIC of imipenem and/or ceftazidime. A fixed concentration of antibiotic was included in standard microbroth MIC tests, usually at the CLSI (Clinical and Laboratory Standards Institute) breakpoint concentration. A fixed amount of a class A/C beta-lactamase inhibitor was also included to inhibit the resident Pseudomonas AmpC enzyme. A serial titration of the metallo-β-lactamase inhibitor was included and the concentration of metallo-β-lactamase inhibitor which restores susceptibility of the strain to the included antibiotic was recorded. That concentration of metallo-β-lactamase inhibitor was then compared between the two strains to determine the fold difference between the efflux+ (MB9798) and efflux− (MB9799) strains. This was taken as an indication of the extent to which the MBLi is subject to efflux.

[5] = test system: Pseudomonas aeruginosa efflux− (MB9799), IMP-1; format: cell-based; conditions: concentration restoring susceptibility to imipenem at 2 μg/mL in the presence of a class A, C, D serine β-lactamase inhibitor closely related to relebactam
Summary of the method: (§2)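 Steps: add fixed imipenem and/or ceftazidime (usually CLSI breakpoint) and fixed AmpC-directed class A/C inhibitor to microbroth MIC wells; titrate MBL inhibitor; record concentration regaining susceptibility for each PAO1-derived strain; divide efflux+ by efflux− value.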

[6] = test system: Pseudomonas aeruginosa efflux+ (MB9798), IMP-1; format: cell-based; conditions: concentration restoring susceptibility to imipenem at 2 μg/mL in the presence of a class A, C, D serine β-lactamase inhibitor closely related to relebactam
Summary of the method: as §2

IMP-1 = IMP-1 (Serratia marcescens, UniProt P52699); assay: biochemical; format: biochemical; conditions: CCF2-FA substrate, 2 pM enzyme, 2 hours at 25° C.
Summary of the method: (§3)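 Fluorescence assay of metallo-β-lactamase activity using CCF2-FA, a cephalosporin-linked 7-hydroxycoumarin–fluorescein substrate. Inhibitor, enzyme and substrate were incubated together for 2 hours at 25° C. IC50 came from a 4-parameter fit of inhibition versus inhibitor concentration.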

NDM-1 = NDM-1 (Klebsiella pneumoniae, UniProt C7C422); assay: biochemical; format: biochemical; conditions: fluorescence assay, CCF2-FA substrate, 1 pM enzyme, 2 hours at 25° C.; read-out: NDM-1 IC50
Summary of the method: as §3

VIM-1 = VIM-1 (Pseudomonas aeruginosa (strain ATCC 15692 / DSM 22644 / CIP 104116 / JCM 14847 / LMG 12228 / 1C / PRS 101 / PAO1), UniProt A0A0F7KYQ8); assay: biochemical; conditions: fluorescence assay, CCF2-FA substrate, 30 pM enzyme, 2 hours at 25° C.; read-out: VIM-1 IC50
Summary of the method: as §3

[7] = fluorescence assay, read-out: IMP-1 IC50

Sequence of NDM-1 (C7C422 whole entry, looked up, species assumed): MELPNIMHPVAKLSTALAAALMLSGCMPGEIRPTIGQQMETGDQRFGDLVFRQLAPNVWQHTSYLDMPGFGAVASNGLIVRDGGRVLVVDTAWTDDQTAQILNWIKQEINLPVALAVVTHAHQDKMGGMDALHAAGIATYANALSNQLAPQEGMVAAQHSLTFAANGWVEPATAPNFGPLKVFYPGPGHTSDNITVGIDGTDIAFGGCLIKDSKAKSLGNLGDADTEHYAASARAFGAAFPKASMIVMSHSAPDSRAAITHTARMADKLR
Sequence of IMP-1 (P52699 whole entry, looked up, species assumed): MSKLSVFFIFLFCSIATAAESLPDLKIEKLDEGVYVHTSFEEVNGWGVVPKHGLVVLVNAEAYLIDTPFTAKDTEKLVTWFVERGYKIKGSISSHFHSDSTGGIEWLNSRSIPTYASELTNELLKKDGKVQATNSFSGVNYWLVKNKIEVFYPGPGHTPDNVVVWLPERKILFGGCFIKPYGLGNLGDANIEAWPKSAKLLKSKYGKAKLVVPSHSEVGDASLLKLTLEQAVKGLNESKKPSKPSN

SMILES: Nc1nc2cccc(-c3ccc(S(N)(=O)=O)c(S(N)(=O)=O)c3-c3nn[nH]n3)c2[nH]1 [Example 1, 4-(2-amino-3H-benzo[d]imidazol-4-yl)-3-(2H-tetrazol-5-yl)benzene-1,2-disulfonamide]
- Klebsiella pneumoniae expressing VIM-1 (IHMA599644) MITC95 [1]: 1.448 µM
- Escherichia coli expressing NDM-1 (CLB30016) MITC95 [2]: 0.5156 µM
- Serratia marcescens expressing IMP-1 (CL5741) MITC95 [3]: 0.8542 µM
- Efflux ratio [4]: 0.65
- P. aeruginosa expressing IMP-1, efflux − (MB9799) MITC95 [5]: 0.8542 µM
- P. aeruginosa expressing IMP-1, efflux + (MB9798) MITC95 [6]: 0.5573 µM
- IC50 (IMP-1; [7]): 0.581 nM
- IC50 (NDM-1): 0.0853 nM
- IC50 (VIM-1): 0.264 nM

SMILES: Nc1ccc2cccc(-c3ccc(S(N)(=O)=O)c(S(N)(=O)=O)c3-c3nn[nH]n3)c2n1 [Example 2, 4-(2-aminoquinolin-8-yl)-3-(2H-tetrazol-5-yl)benzene-1,2-disulfonamide]
- Klebsiella pneumoniae expressing VIM-1 (IHMA599644) MITC95 [1]: 1.563 µM
- Escherichia coli expressing NDM-1 (CLB30016) MITC95 [2]: 0.7813 µM
- Serratia marcescens expressing IMP-1 (CL5741) MITC95 [3]: 0.7813 µM
- Efflux ratio [4]: 1.00
- P. aeruginosa expressing IMP-1, efflux − (MB9799) MITC95 [5]: 0.7813 µM
- P. aeruginosa expressing IMP-1, efflux + (MB9798) MITC95 [6]: 0.7813 µM
- IC50 (IMP-1; [7]): 0.279 nM
- IC50 (NDM-1): 0.163 nM
- IC50 (VIM-1): 0.462 nM

SMILES: NS(=O)(=O)c1ccc(-c2cccc3cn[nH]c23)c(-c2nn[nH]n2)c1S(N)(=O)=O [Example 3, 4-(1H-indazol-7-yl)-3-(2H-tetrazol-5-yl)benzene-1,2-disulfonamide]
- Klebsiella pneumoniae expressing VIM-1 (IHMA599644) MITC95 [1]: 6.25 µM
- Escherichia coli expressing NDM-1 (CLB30016) MITC95 [2]: 3.125 µM
- Serratia marcescens expressing IMP-1 (CL5741) MITC95 [3]: 1.563 µM
- Efflux ratio [4]: 2.00
- P. aeruginosa expressing IMP-1, efflux − (MB9799) MITC95 [5]: 1.563 µM
- P. aeruginosa expressing IMP-1, efflux + (MB9798) MITC95 [6]: 3.125 µM
- IC50 (IMP-1; [7]): 0.233 nM
- IC50 (NDM-1): 0.151 nM
- IC50 (VIM-1): 0.258 nM

SMILES: Nc1nc2c(-c3ccc(S(N)(=O)=O)c(S(N)(=O)=O)c3-c3nn[nH]n3)cccc2o1 [Example 4, 4-(2-aminobenzo[d]oxazol-4-yl)-3-(2H-tetrazol-5-yl)benzene-1,2-disulfonamide]
- Klebsiella pneumoniae expressing VIM-1 (IHMA599644) MITC95 [1]: 3.125 µM
- Escherichia coli expressing NDM-1 (CLB30016) MITC95 [2]: 3.125 µM
- Serratia marcescens expressing IMP-1 (CL5741) MITC95 [3]: 1.563 µM
- Efflux ratio [4]: 1.00
- P. aeruginosa expressing IMP-1, efflux − (MB9799) MITC95 [5]: 1.563 µM
- P. aeruginosa expressing IMP-1, efflux + (MB9798) MITC95 [6]: 1.563 µM
- IC50 (IMP-1; [7]): 0.354 nM
- IC50 (NDM-1): 0.136 nM
- IC50 (VIM-1): 0.237 nM

SMILES: Cn1c(N)nc2c(-c3ccc(S(N)(=O)=O)c(S(N)(=O)=O)c3-c3nn[nH]n3)cccc21 [Example 5, 4-(2-amino-1-methyl-1H-benzo[d]imidazol-4-yl)-3-(2H-tetrazol-5-yl)benzene-1,2-disulfonamide]
- Klebsiella pneumoniae expressing VIM-1 (IHMA599644) MITC95 [1]: 1.781 µM
- Escherichia coli expressing NDM-1 (CLB30016) MITC95 [2]: 0.25 µM
- Serratia marcescens expressing IMP-1 (CL5741) MITC95 [3]: 0.8906 µM
- Efflux ratio [4]: 2.00
- P. aeruginosa expressing IMP-1, efflux − (MB9799) MITC95 [5]: 0.8906 µM
- P. aeruginosa expressing IMP-1, efflux + (MB9798) MITC95 [6]: 1.781 µM
- IC50 (IMP-1; [7]): 0.346 nM
- IC50 (NDM-1): 0.197 nM
- IC50 (VIM-1): 0.146 nM

SMILES: Cc1ccc(-c2ccc(S(N)(=O)=O)c(S(N)(=O)=O)c2-c2nn[nH]n2)c2nc(N)sc12 [Example 6, 4-(2-amino-7-methylbenzo[d]thiazol-4-yl)-3-(2H-tetrazol-5-yl)benzene-1,2-disulfonamide]
- Klebsiella pneumoniae expressing VIM-1 (IHMA599644) MITC95 [1]: 6.25 µM
- Escherichia coli expressing NDM-1 (CLB30016) MITC95 [2]: 6.25 µM
- Serratia marcescens expressing IMP-1 (CL5741) MITC95 [3]: 1.563 µM
- Efflux ratio [4]: 1.00
- P. aeruginosa expressing IMP-1, efflux − (MB9799) MITC95 [5]: 1.563 µM
- P. aeruginosa expressing IMP-1, efflux + (MB9798) MITC95 [6]: 1.563 µM
- IC50 (IMP-1; [7]): 0.0648 nM
- IC50 (NDM-1): 0.0269 nM
- IC50 (VIM-1): 0.0915 nM

SMILES: CNS(=O)(=O)c1ccc(-c2cccc3cn[nH]c23)c(-c2nn[nH]n2)c1S(N)(=O)=O [Example 7, 4-(1H-indazol-7-yl)-N1-methyl-3-(2H-tetrazol-5-yl)benzene-1,2-disulfonamide]
- Klebsiella pneumoniae expressing VIM-1 (IHMA599644) MITC95 [1]: 6.25 µM
- Escherichia coli expressing NDM-1 (CLB30016) MITC95 [2]: 6.25 µM
- Serratia marcescens expressing IMP-1 (CL5741) MITC95 [3]: 3.125 µM
- Efflux ratio [4]: 15.99
- P. aeruginosa expressing IMP-1, efflux − (MB9799) MITC95 [5]: 1.563 µM
- P. aeruginosa expressing IMP-1, efflux + (MB9798) MITC95 [6]: 25 µM
- IC50 (IMP-1; IMP-1 IC50, fluorescence assay): 0.214 nM
- IC50 (NDM-1): 0.101 nM
- IC50 (VIM-1): 0.108 nM

SMILES: NS(=O)(=O)c1ccc(-c2cccc3[nH]c(C(=O)O)nc23)c(-c2nn[nH]n2)c1S(N)(=O)=O [Example 8, 4-(3,4-disulfamoyl-2-(2H-tetrazol-5-yl)phenyl)-1H-benzo[d]imidazole-2-carboxylic acid]
- Klebsiella pneumoniae expressing VIM-1 (IHMA599644) MITC95 [1]: 6.25 µM
- Escherichia coli expressing NDM-1 (CLB30016) MITC95 [2]: 1.563 µM
- Serratia marcescens expressing IMP-1 (CL5741) MITC95 [3]: 3.125 µM
- Efflux ratio [4]: 1.00
- P. aeruginosa expressing IMP-1, efflux − (MB9799) MITC95 [5]: 1.563 µM
- P. aeruginosa expressing IMP-1, efflux + (MB9798) MITC95 [6]: 1.563 µM
- IC50 (IMP-1; [7]): 0.361 nM
- IC50 (NDM-1): 0.123 nM
- IC50 (VIM-1): 0.287 nM

SMILES: NCCNS(=O)(=O)c1ccc(-c2cccc3cn[nH]c23)c(-c2nn[nH]n2)c1S(N)(=O)=O [Example 9, N^1-(2-aminoethyl)-4-(1H-indazol-7-yl)-3-(2H-tetrazol-5-yl)benzene-1,2-disulfonamide]
- Klebsiella pneumoniae expressing VIM-1 (IHMA599644) MITC95 [1]: 1.563 µM
- Escherichia coli expressing NDM-1 (CLB30016) MITC95 [2]: 0.7813 µM
- Serratia marcescens expressing IMP-1 (CL5741) MITC95 [3]: 1.563 µM
- Efflux ratio [4]: 0.50
- P. aeruginosa expressing IMP-1, efflux − (MB9799) MITC95 [5]: 0.7813 µM
- P. aeruginosa expressing IMP-1, efflux + (MB9798) MITC95 [6]: 0.3906 µM
- IC50 (IMP-1; [7]): 0.171 nM
- IC50 (NDM-1): 0.0844 nM
- IC50 (VIM-1): 0.133 nM

SMILES: Cl.Cn1c(N)nc2c(-c3ccc(S(=O)(=O)NCCN)c(S(N)(=O)=O)c3-c3nn[nH]n3)cccc21 [Example 10, 4-(2-amino-1-methyl-1H-benzo[d]imidazol-4-yl)-N1-(2-aminoethyl)-3-(2H-tetrazol-5-yl)benzene-1,2-disulfonamide hydrochloride]
- Klebsiella pneumoniae expressing VIM-1 (IHMA599644) MITC95 [1]: 1.531 µM
- Escherichia coli expressing NDM-1 (CLB30016) MITC95 [2]: 0.1875 µM
- Serratia marcescens expressing IMP-1 (CL5741) MITC95 [3]: 0.6406 µM
- Efflux ratio [4]: 1.00
- P. aeruginosa expressing IMP-1, efflux − (MB9799) MITC95 [5]: 0.7656 µM
- P. aeruginosa expressing IMP-1, efflux + (MB9798) MITC95 [6]: 0.7656 µM
- IC50 (IMP-1; [7]): 0.235 nM
- IC50 (NDM-1): 0.0901 nM
- IC50 (VIM-1): 0.177 nM
